Measurements: ChEMBL document CHEMBL1765032, “β-Branched acyclic nucleoside analogues as inhibitors of Plasmodium falciparum dUTPase” (Bioorg Med Chem, 2011)

Experiments:
[1] = Inhibition of Plasmodium falciparum dUTPase by spectrophotometric analysis
[2] = biological target: T1, Deoxyuridine 5'-triphosphate nucleotidohydrolase, mitochondrial (Homo sapiens, UniProt P33316); assay: Inhibition of human dUTPase by spectrophotometric analysis
T1 sequence (P33316 whole entry): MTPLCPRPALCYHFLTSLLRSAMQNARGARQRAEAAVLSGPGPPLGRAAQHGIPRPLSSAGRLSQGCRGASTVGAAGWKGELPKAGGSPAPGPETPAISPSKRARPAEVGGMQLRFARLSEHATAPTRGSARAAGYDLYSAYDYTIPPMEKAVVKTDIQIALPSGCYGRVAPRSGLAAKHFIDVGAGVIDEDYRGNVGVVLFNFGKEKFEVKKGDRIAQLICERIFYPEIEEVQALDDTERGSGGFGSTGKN

L6 = assay: Cytotoxicity against rat L6 cells after 72 hrs by alamar blue assay; assay type: cell-based; conditions: L6, 72 h
[3] = Selectivity index, ratio of EC50 for rat L6 cells to EC50 for chloroquine-resistant erythrocytic stage of Plasmodium falciparum K1; assay type: toxicity, cell-based; conditions: read-out: Ratio EC50
Plasmodium falciparum = assay: microbe, parasite or virus in culture; conditions: K1

Ki [2] [µM] | SMILES | Ki [1] [µM] | EC50 (L6) [µM] | selectivity ratio [3] | EC50 (Plasmodium falciparum) [µM]
> 100 | O=C(OCc1ccccc1)OCC(CCNC(c1ccccc1)(c1ccccc1)c1ccccc1)Cn1ccc(=O)[nH]c1=O (racemic) | 6.5 | – | – | –
> 100 | CN1CCN(C(=O)C(CCOC(c2ccccc2)(c2ccccc2)c2ccccc2)Cn2ccc(=O)[nH]c2=O)CC1 (racemic) | 5.6 | – | – | –
> 100 | CN(C)CCNC(=O)C(CCOC(c1ccccc1)(c1ccccc1)c1ccccc1)Cn1ccc(=O)[nH]c1=O (racemic) | 7.8 | – | – | –
> 100 | CN(C)C(=O)C(CCOC(c1ccccc1)(c1ccccc1)c1ccccc1)Cn1ccc(=O)[nH]c1=O (racemic) | 2.7 | – | – | –
> 100 | NC(=O)C(CCOC(c1ccccc1)(c1ccccc1)c1ccccc1)Cn1ccc(=O)[nH]c1=O (racemic) | 1.3 | – | – | –
– | O=c1ccn(CC(CO)CCOC(c2ccccc2)(c2ccccc2)c2ccccc2)c(=O)[nH]1 (racemic) | – | 33 | – | 1.2
> 100 | CC(C)(C)[Si](OCCC(Cn1ccc(=O)[nH]c1=O)C(N)=O)(c1ccccc1)c1ccccc1 (racemic) | 5 | – | – | –
> 100 | COCCNC(=O)C(CCOC(c1ccccc1)(c1ccccc1)c1ccccc1)Cn1ccc(=O)[nH]c1=O (racemic) | 1.4 | – | – | –
> 100 | CC(C)(C)[Si](OCCNC(=O)C(CCOC(c1ccccc1)(c1ccccc1)c1ccccc1)Cn1ccc(=O)[nH]c1=O)(c1ccccc1)c1ccccc1 (racemic) | > 10 | – | – | –
– | COc1cc([C@@H]2c3cc4c(cc3[C@H](O)[C@H]3COC(=O)[C@H]23)OCO4)cc(OC)c1OC [PODOFILOX] | – | – | – | 0.012
– | O=c1ccn([C@H]2C[C@H](O)[C@@H](CNC(c3ccccc3)(c3ccccc3)c3ccccc3)O2)c(=O)[nH]1 | – | 44 | – | 4.5
> 100 | O=C(NCCO)C(CCOC(c1ccccc1)(c1ccccc1)c1ccccc1)Cn1ccc(=O)[nH]c1=O (racemic) | – | – | – | –
– | O=c1ccn([C@H]2C[C@H](O)[C@@H](COC(c3ccccc3)(c3ccccc3)c3ccccc3)O2)c(=O)[nH]1 | – | 192 | – | 6
> 100 | CNC(=O)C(CCO[Si](c1ccccc1)(c1ccccc1)C(C)(C)C)Cn1ccc(=O)[nH]c1=O (racemic) | 3.6 | – | – | –
– | O=c1ccn(CCCCOC(c2ccccc2)(c2ccccc2)c2ccccc2)c(=O)[nH]1 | – | 42 | – | 4.9
> 100 | CCOC(=O)CCNC(=O)C(CCOC(c1ccccc1)(c1ccccc1)c1ccccc1)Cn1ccc(=O)[nH]c1=O (racemic) | 0.5 | – | – | –
> 100 | CC(C)(C)[Si](OCCC(Cn1ccc(=O)[nH]c1=O)C(=O)N1CCN(C(=O)OCc2ccccc2)CC1)(c1ccccc1)c1ccccc1 (racemic) | 98 | – | – | –
> 100 | O=C(C(CCOC(c1ccccc1)(c1ccccc1)c1ccccc1)Cn1ccc(=O)[nH]c1=O)N1CCOCC1 (racemic) | 2.1 | – | – | –
> 100 | O=C(O)CCNC(=O)C(CCOC(c1ccccc1)(c1ccccc1)c1ccccc1)Cn1ccc(=O)[nH]c1=O (racemic) | 0.2 | – | – | –
> 100 | CCN(CC)C(=O)C(CCO[Si](c1ccccc1)(c1ccccc1)C(C)(C)C)Cn1ccc(=O)[nH]c1=O (racemic) | 20 | – | – | –
> 100 | CCNC(=O)C(CCO[Si](c1ccccc1)(c1ccccc1)C(C)(C)C)Cn1ccc(=O)[nH]c1=O (racemic) | 5.7 | – | – | –
> 100 | CC(C)(C)[Si](OCCC(Cn1ccc(=O)[nH]c1=O)C(=O)O)(c1ccccc1)c1ccccc1 (racemic) | 1.6 | – | – | –

SMILES | Ki [2] [µM] | Ki [1] [µM] | EC50 (L6) [µM] | selectivity ratio [3] | EC50 (Plasmodium falciparum) [µM]
O=C(O)C(CCNC(c1ccccc1)(c1ccccc1)c1ccccc1)Cn1ccc(=O)[nH]c1=O (racemic) | 90 | 7.2 | 51 | 39 | 1.3
NC(=O)C(CCNC(c1ccccc1)(c1ccccc1)c1ccccc1)Cn1ccc(=O)[nH]c1=O (racemic) | 98 | 5.5 | 177 | 161 | 1.1
